According to publication PMC10457970, “HIV-1 Integrase Inhibition Activity by Spiroketals Derived from Plagius flosculosus, an Endemic Plant of Sardinia (Italy) and Corsica (France)” (Pharmaceuticals, 2023):
Several values for one entry are separate records, joined by “and”; a condition that tells them apart may be missing. Equal values may be shown once.

Legend:
[1] = Compound UV–VIS spectra in the presence of MgCl2 (chelation); format: physicochemical; conditions: 6 mM MgCl2, UV–VIS 250–600 nm
Experimental: The ability of compounds to chelate the MgCl2 was measured using 15% ethanol and 15 mM Tris HCl pH 7.8 (in 1 mL of volume). The UV–VIS spectrum was recorded, before and after the addition of 6 mM MgCl2, from 250 nm to 600 nm.

[2] = Cytotoxicity, CellTiter-Glo 2.0; format: cell-based; conditions: human, TZM-bl cells
Experimental: (§1) Cytotoxicity was determined by the CellTiter-Glo 2.0 Luminescent Cell Viability Assay (Promega) according to the manufacturer’s protocol. Briefly, 15,000 cells/well of Tzm-bl were exposed to serial diluition of the drug and after 48 h, cell viability was calculated by measuring cellular ATP through a luciferase-based chemical reaction. The luminescent signal obtained from cells treated with serial dilution of the tested compounds, or the control (DMSO), was measured using the GloMax® Discover Multimode Microplate Reader (Promega) and processed with GraphPad PRISM software to calculate the half-maximal cytotoxic concentration (CC50). The DMSO curve, used as a control, was added in each plate and SPK-3 was tested in duplicate. The non-toxic dose corresponding to 90–100% cell viability was used as the maximum concentration in the antiviral assays.

[3] = test system: HIV-1 wild-type reference strain NL4-3; assay: Anti-HIV-1 activity in TZM-bl cell line; format: cell-based; conditions: 48 h
Experimental: The antiviral activity of the investigated compound was evaluated by measuring the IC50 values against the HIV-1 wild-type reference strain NL4-3 in a TZM-bl cell line-based phenotypic assay, as previously published. Briefly, 15,000 cells/well were infected with the wild-type NL4-3 strain at multiplicity of infection (MOI) of 0.1 in the presence of serial diluitions of the drug in a 96-well plate format. […] Each compound was tested in duplicate and tested in two independent experiments. After 48 h, the cells were detached with the Glo-Lysis buffer (Promega, Madison, WI, USA), and the Bright-Glo Luciferase reagent (Promega) was added to each well as indicated by the manufacturer. Finally, the relative luminescence units were measured using the GloMax Discover instrument (Promega) as previously described and processed with GraphPad software to calculate half-maximal inhibitory concentration (IC50) values.

[4] = biological target: T1, HIV-1 IN in the presence of LEDGF/p75 cellular cofactor (Human immunodeficiency virus type 1 group M subtype B, UniProt P04585); assay: HTRF LEDGF-dependent HIV-1 IN activity assay; format: biochemical; conditions: pure compounds; mean ± SD of three independent experiments
T1 construct: Recombinant 6xHis IN protein, FLAG-IN, His-LEDGF and FLAG-LEDGF were expressed in Escherichia coli strain BL21 (DE3); made in house; host or cells: Escherichia coli BL21 (DE3)
Experimental: (§2) Recombinant 6xHis IN protein, FLAG-IN, His-LEDGF and FLAG-LEDGF were expressed in Escherichia coli strain BL21 (DE3) and purified as previously described. His-tagged p66/p51 HIV-1 RT was expressed in E. coli strain M15 and purified as previously described.
(§3) The evalaution of 3′-processing and strand-transfer IN reactions in the presence or in the absence of recombinant LEDGF/p75 cellular cofactor were performed as described previously. Briefly, recombinant IN was pre-incubated for 1 h at room temperature, in a buffer containing 20 mM HEPES pH 7.5, 1 mM DTT, 1% Glycerol, 20 mM MgCl2, 0.05% Brij-35 and 0.1 mg/mL BSA and increasing concentrations of the tested compounds.
(§4) Then, 9 nM Biotin3′-DNA donor substrate 50 nM 5′-Cy5-DNA acceptor substrate and 50 nM LEDGF/p75 protein (when required) were added to this reaction and incubated at 37 °C for 90 min.

[5] = biological target: T2, HIV-1 RT-associated RNase H (Human immunodeficiency virus type 1 group M subtype B, UniProt P04585); assay: RT-associated RNase H assay; format: biochemical; conditions: pure compounds; mean ± SD of three independent experiments
T2 construct: His-tagged p66/p51 HIV-1 RT was expressed in E. coli strain M15; His; made in house; host or cells: Escherichia coli M15
Experimental: as §2
The HIV-1 RNase H activity was determined as described by Esposito et al.. Briefly, 100 µL of volume of reaction containing 50 mM Tris HCl pH 7.8, 6 mM MgCl2, 1 mM DTT, 80 mM KCl, hybrid RNA/DNA (5′-[…]-3′-Fluorescein, 5′-[…]-3′-Dabcyl), and 3.8 nM RT was incubated for 1 h at 37 °C. The reaction was stopped by the addition of EDTA and measured with a plate reader at 490/528 nm.

[6] = test system: T3, HIV-1 IN multimerization; format: binding; conditions: concentration for 50% of the multimerization increase
T3 construct: His and FLAG-tagged IN enzymes were added in a buffer containing 25 mM Tris pH 7.4; made in house; host or cells: Escherichia coli BL21 (DE3)
Experimental: (§5) This IN–IN binding assay allows the verification of higher-order, aberrant IN multimerization or IN–IN subunit exchange. Briefly, His and FLAG-tagged IN enzymes were added in a buffer containing 25 mM Tris pH 7.4, 150 mM NaCl, 2 mM MgCl2, 0.1% Nonidet P-40, and 1 mg/mL BSA [12, 48] with different concentrations of compounds, and incubated for 2.5 h at room temperature. After this time, a mixture of two specific antibodies (anti-His6-XL665 and anti-FLAG-EuCryptate) was added to the reaction and incubated at room temperature for 3 h. The HTRF signal was recorded as described in the previous paragraph.
(§6) The analysis of the signal in order to evaluate the aberrant IN multimerization and interference with the IN–IN subunit exchange or functional IN–IN interactions was performed as described above.

[7] = biological target: HIV-1 IN–IN subunit exchange (Human immunodeficiency virus type 1 group M subtype B, UniProt P04585); assay: biochemical; format: binding
Experimental: as §5, §6

[8] = test system: TZM-bl cells; assay: Cytotoxicity, CellTiter-Glo 2.0; format: cell-based; conditions: 48 h
Experimental: as §1

[9] = biological target: HIV-1 IN–LEDGF interaction (Human immunodeficiency virus type 1 group M subtype B, UniProt P04585); assay: biochemical; format: binding
Experimental: Recombinant His-IN was pre-incubated for 30 min at room temperature in the presence of the tested compounds in a mixture reaction composed of 150 mM NaCl, 2 mM MgCl2, 0.1% Nonidet P-40, 1 mg/mL BSA, and 25 mM Tris pH 7.4 [12, 48]. After this time, FLAG-LEDGF was added and the mixture was incubated for 30 min at room temperature. A mixture of two specific antibodies (anti-His6-XL665 and anti-FLAG-EuCryptate) was then added to the reaction and incubated for 4 h at 4 °C.

[10] = biological target: T4, HIV-1 IN in the absence of LEDGF (Human immunodeficiency virus type 1 group M subtype B, UniProt P04585); assay: biochemical; format: biochemical
T4 construct: Recombinant 6xHis IN protein, FLAG-IN, His-LEDGF and FLAG-LEDGF were expressed in Escherichia coli strain BL21 (DE3); made in house; host or cells: Escherichia coli BL21 (DE3)
Experimental: as §2, §3, §4

**Q.** With `CCOC(=O)C(=O)CC(=O)/C=C/c1cccn1Cc1ccc(F)cc1` [RDS1643, reference compound] as the compound, how does the “shift in the maximum of absorbance in the presence of Mg2+” value (“shift in the maximum of absorbance” for short) [1] read?
**A.** 16 nm

**Q.** Which CC50 at 48 h [2] does the source give for `Cc1nnc(C(=O)NC(C)(C)c2nc(C(=O)NCc3ccc(F)cc3)c(O)c(=O)n2C)o1` [Raltegravir, reference compound] here?
**A.** > 100 µM

**Q.** And the EC50 ([3]; Human immunodeficiency virus 1, NL43, TZM-bl, read-out: EC50 inhibiting HIV-1 viral replication)?
**A.** 0.0087 µM

**Q.** Which results are given for `CC#CC#C/C=C1\C=CC2(CCCO2)O1` (stereo not shown) [SPK1, tonghaosu]?
**A.** IC50 [4]: 1.69 ± 0.38 µM; IC50 [5]: 10 ± 5.4 µM; shift in the maximum of absorbance in the presence of Mg2+ [1]: 3.5 nm

**Q.** For `CC#CC#C/C=C1\C=CC2(OC=CC2OC(C)=O)O1` (stereo not shown) [SPK2], which IC50 [4] is on record?
**A.** 14.7 ± 0.3 µM

**Q.** What about the IC50 [5] of the same compound?
**A.** 20 ± 6.1 µM

**Q.** And the “shift in the maximum of absorbance” value [1]?
**A.** 4.5 nm

**Q.** With `CC#CC#C/C=C1/O[C@@]2(OC=C[C@H]2OC(C)=O)[C@@H](O)[C@@H]1Cl` [SPK3, flosculin A] as the compound, how does the “IN Multimerization MI50” value [6] read?
**A.** 1 µM and 1.00 ± 0.01 µM

**Q.** What about the IC50 [7] of the same compound?
**A.** > 100 µM

**Q.** What about the “IN–IN Subunit Exchange IC50” value [7] of the same compound?
**A.** without any effect

**Q.** And the CC50 at 48 h [2]?
**A.** 50 µM

**Q.** And the CC50 [8]?
**A.** 50.1 ± 4.3 µM

**Q.** And the “IN–LEDGF Binding IC50” value [9]?
**A.** did not inhibit

**Q.** What about the IC50 ([9]; read-out: IN–LEDGF Binding IC50) of the same compound?
**A.** > 100 µM

**Q.** And the IC50 [4]?
**A.** 1.46 ± 0.16 µM

**Q.** And the IC50 ([10]; absence of LEDGF, read-out: LEDGF-Independent IN Activity IC50)?
**A.** 27.3 ± 2.3 µM

**Q.** And the “decrease in potency on HIV-1 IN in the absence vs presence of LEDGF/p75” value ([10]; ratio LEDGF-independent / LEDGF-dependent IC50)?
**A.** 18.7 fold

**Q.** What about the “EC50 inhibiting HIV-1 viral replication” value ([3]; NL4-3, TZM-bl, two independent experiments) of the same compound?
**A.** did not inhibit

**Q.** What about the IC50 [5] of the same compound?
**A.** 3.6 ± 0.6 µM

**Q.** What about the “shift in the maximum of absorbance” value [1] of the same compound?
**A.** 3 nm
